These results are taken from patent US20110263610A1, “COMPOUNDS AND COMPOSITIONS AS ITPKB INHIBITORS” (IRM LLC, priority 2008, published 2011).

The first assay deals with T1, ITPKb (Mus musculus, UniProt B2RXC2).
T1 construct: murine ITPKb residues 640-942; MGSDKIHHHHHH (His6 tag from MH4 plasmid) (N); made in house; host or cells: Escherichia coli HK100
T1 sequence (B2RXC2 640-942): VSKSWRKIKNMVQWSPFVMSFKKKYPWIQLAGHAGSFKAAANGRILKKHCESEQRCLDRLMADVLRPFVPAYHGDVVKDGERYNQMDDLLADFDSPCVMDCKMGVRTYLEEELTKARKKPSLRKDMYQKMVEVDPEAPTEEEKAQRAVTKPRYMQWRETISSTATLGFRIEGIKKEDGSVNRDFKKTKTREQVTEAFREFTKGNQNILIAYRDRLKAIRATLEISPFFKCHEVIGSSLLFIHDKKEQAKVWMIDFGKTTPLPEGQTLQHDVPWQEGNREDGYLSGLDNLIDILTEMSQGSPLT
Kind of assay: Biochemical measurement of ITPKb activity (Kinase-Glo ATP depletion assay); inhibiting the phosphorylation of IP3 to IP4. The conditions noted are these: Table 2; inhibiting the phosphorylation of IP3 to IP4; read-out: IC50. Details: species or system murine. The method, then:
Compounds of the present invention are assayed to measure their capacity to inhibit ITPKb according to the following assays.
The DNA sequence encoding murine ITPKb residues 640-942 is amplified from a full-length construct in mammalian expression vector pKDNZ by PCR. The 3′-primer incorporates a stop codon and an overhanging PacI site. The product is digested with Pad before being ligated into the MH4 plasmid which has been prepared by digestion with PmlI and PacI. Cloning into the MH4 plasmid adds the sequence MGSDKIHHHHHH to the N-terminus of the translated region. Mutant enzymes are made by site-directed mutagenesis using the Stratagene Quikchange kit.
ITPKb is expressed in the HK100 strain of Escherichia coli. Typically, a 4 L batch of cells is grown in LB with […] ampicillin to 0.5 A600 at 30 degrees C., before induction with 0.02% L-arabinose for 6 hours. Cells are harvested by centrifugation, and pellets are resuspended in 50 mL of 50 mM Tris (pH 8), 100 mM NaCl, 1 mM TCEP, and 0.1 mg/mL lysozyme, with 1 Complete protease inhibitor tablet (Roche). Cells are disrupted by sonication, and debris is removed by centrifugation for 40 minutes at 35000 g.
Initial purification is performed using three nickel-Sepharose Hi-Trap HP 1 mL columns (Amersham) connected in series. After application of the pellet supernatants, the bound material is washed with 20 mM Tris (pH 8.0), 20 mM imidazole, 10% glycerol (v/v), and 1 mM TCEP before elution with an imidazole gradient up to 200 mM.
Fractions containing ITPKb are identified by SDS-PAGE, and the pure fractions are concentrated and buffer exchanged using centriprep 20 15 kDa columns into 20 mM Tris (pH 8), 200 mM KCl, 5 mM MgCl2, 0.5 mM DTT, 10% glycerol, 1 μM IP3, and 20 μM ATP to a final protein concentration of 7 mg/mL.
ITPKb activity is determined using the Kinase-Glo (Promega) ATP depletion assay. The assay reaction buffer consists of 50 mM Tris (pH 8.0), 100 mM NaCl, 1 mM DTT, 10% glycerol, 5 mM MgCl2, 1 μM ATP, and 10 μM IP3 (Alexis Biochemicals). 50 nl of inhibitor is then added to each 40 μL reaction followed by a 10 μL addition of purified ITPKb (final concentration of 60 nM). The reaction mixture is incubated for 60 minutes at room temperature and stopped by the addition of an equal volume of kinase-glo reagent (Promega). Luminescence is measured using a Molecular Devices Acquest instrument.
For orientation: In Kinase-Glo more light means more ATP remaining.
As for `C[C@@H]1CN(Cc2c[nH]nc2-c2cc3ccccc3[nH]2)CCN1c1ccc(C(F)(F)F)cn1` [Example 8, (R)-2-(4-((3-methyl-4-(5-(trifluoromethyl)pyridin-2-yl)piperazin-1-yl)methyl)-1H-pyrazol-3-yl)-1H-indole], the IC50 (usually the concentration needed to halve the response being measured) is 192 nM. For `C[C@@H]1CN(Cc2c[nH]nc2C2=CCNCC2)CCN1c1ccc(C(F)(F)F)cn1` [Example 9, (R)-2-methyl-4-((3-(1,2,3,6-tetrahydropyridin-4-yl)-1H-pyrazol-4-yl)methyl)-1-(5-(trifluoromethyl)pyridin-2-yl)piperazine], the IC50 is 278 nM. Same read-out and setting: then `C[C@@H]1CN(Cc2c[nH]nc2C2=CCN(C=O)CC2)CCN1c1ccc(C(F)(F)F)cn1` [Example 10, (R)-4-(4-((3-methyl-4-(5-(trifluoromethyl)pyridin-2-yl)piperazin-1-yl)methyl)-1H-pyrazol-3-yl)-5,6-dihydropyridine-1(2H)-carbaldehyde], with 10 nM. Consider `C[C@@H]1CN(Cc2c[nH]nc2-c2nc(C(F)(F)F)c[nH]2)CCN1c1ccc(C(F)(F)F)cn1` [Example 11, (R)-2-methyl-4-((3-(4-(trifluoromethyl)-1H-imidazol-2-yl)-1H-pyrazol-4-yl)methyl)-1-(5-(trifluoromethyl)pyridin-2-yl)piperazine], for which the IC50 was determined as 1480 nM. Turning to `C[C@@H]1CN(Cc2c[nH]nc2-c2nc(C(=N)N)c[nH]2)CCN1c1ccc(C(F)(F)F)cn1` [Example 12, (R)-2-(4-((3-methyl-4-(5-(trifluoromethyl)pyridin-2-yl)piperazin-1-yl)methyl)-1H-pyrazol-3-yl)-1H-imidazole-4-carboximidamide], the IC50 worked out at 475 nM.

The assay is the same for the next values; noted with them: read-out: IC50 in inhibiting the phosphorylation of IP3 to IP4.
On to `C[C@@H]1CN(Cc2c[nH]nc2-c2cc(C#N)c[nH]2)CCN1c1ccc(C(F)(F)F)cn1` [Example 1, (R)-5-(4-((3-methyl-4-(5-(trifluoromethyl)pyridin-2-yl)piperazin-1-yl)methyl)-1H-pyrazol-3-yl)-1H-pyrrole-3-carbonitrile], for which the IC50 came out at 9 nM. On the same count and under the same terms, under `C[C@@H]1CN(Cc2c[nH]nc2-c2cc(C(N)=O)c[nH]2)CCN1c1ccc(C(F)(F)F)cn1` [Example 2, (R)-5-(4-((3-methyl-4-(5-(trifluoromethyl)pyridin-2-yl)piperazin-1-yl)methyl)-1H-pyrazol-3-yl)-1H-pyrrole-3-carboxamide] stands 3 nM; under `CNC(=O)c1c[nH]c(-c2n[nH]cc2CN2CCN(c3ccc(C(F)(F)F)cn3)[C@H](C)C2)c1` [Example 3, (R)—N-methyl-5-(4-((3-methyl-4-(5-(trifluoromethyl)pyridin-2-yl)piperazin-1-yl)methyl)-1H-pyrazol-3-yl)-1H-pyrrole-3-carboxamide], 11 nM. For the molecule `C[C@@H]1CN(Cc2c[nH]nc2-c2ccc(C#N)[nH]2)CCN1c1ccc(C(F)(F)F)cn1` [Example 4, (R)-5-(4-((3-methyl-4-(5-(trifluoromethyl)pyridin-2-yl)piperazin-1-yl)methyl)-1H-pyrazol-3-yl)-1H-pyrrole-2-carbonitrile], the IC50 amounted to 81 nM. The same measure, in the same setting: then `C[C@@H]1CN(Cc2c[nH]nc2-c2ccc(C(N)=O)[nH]2)CCN1c1ccc(C(F)(F)F)cn1` [Example 5, (R)-5-(4-((3-methyl-4-(5-(trifluoromethyl)pyridin-2-yl)piperazin-1-yl)methyl)-1H-pyrazol-3-yl)-1H-pyrrole-2-carboxamide], with 28 nM; and `C[C@@H]1CN(Cc2c[nH]nc2-c2c[nH]c(C#N)c2)CCN1c1ccc(C(F)(F)F)cn1` [Example 6, (R)-4-(4-((3-methyl-4-(5-(trifluoromethyl)pyridin-2-yl)piperazin-1-yl)methyl)-1H-pyrazol-3-yl)-1H-pyrrole-2-carbonitrile], with 6 nM. On the same count and under the same terms, then `C[C@@H]1CN(Cc2c[nH]nc2-c2c[nH]c(C(N)=O)c2)CCN1c1ccc(C(F)(F)F)cn1` [Example 7, (R)-4-(4-((3-methyl-4-(5-(trifluoromethyl)pyridin-2-yl)piperazin-1-yl)methyl)-1H-pyrazol-3-yl)-1H-pyrrole-2-carboxamide], with 2 nM.
